# Assay results: BindingDB's records for doi:10.1021/jm0309194 (University of Innsbruck, 2003)
# What was measured:
# [1] = In vitro binding affinity was determined against butyrylcholinesterase from torpedo californica
# [2] = In vitro anticholinesterase activity against butyrylcholinesterase from torpedo californica
smiles,measurement,setting,value
"C/C(=C\C(=O)N(C)[C@H]1CC[C@@]2(C)[C@@H](CC[C@@H]3[C@@H]2CC[C@]2(C)C([C@H](C)N(C)C)=CC[C@@H]32)C1)C(C)C [1N-[14-(1-dimethylaminoethyl)-2,15-dimethyl-(1S,7S,10R,11S)-tetracyclo[8.7.0.02,7.011,15]heptadec-13-en-5-yl]-1N,3,4-trimethyl-(E)-2-pentenamide]",Ki,[1],9.1 µM
same,IC50,[2],3.65 µM
"C/C=C(\C)C(=O)NC1C=C2CC[C@@H]3[C@H](CC[C@]4(C)C([C@H](C)N(C)C)=CC[C@@H]34)[C@@]2(C)C[C@H]1O (stereo partly drawn) [1N-[14-[1-dimethylamino-(1S)-ethyl]-4-hydroxy-2,15-dimethyl-(1S,2R,4R,5R,10S,11S,15S)-tetracyclo[8.7.0.02,7.011,15]heptadeca-6,13-dien-5-yl]-2-methyl-(E)-2-butenamide]",IC50,[2],23.8 µM
"C/C(=C\C(=O)N[C@H]1CC[C@@]2(C)[C@@H](CC[C@@H]3[C@@H]2CC[C@]2(C)[C@@H]([C@H](C)N(C)C)CC[C@@H]32)C1)C(C)C [3,4-Dimethyl-pent-2-enoic acid [(3S,5S,8R,9S,10S,13S,14S,17S)-17-(1-dimethylamino-ethyl)-10-methyl-13-(S)-methyl-hexadecahydro-cyclopenta[a]phenanthren-3-yl]-amide]",Ki,[1],3.25 µM
same,IC50,[2],4.63 µM
"C/C=C(\C)C(=O)N[C@H]1CC[C@@]2(C)C(=CC[C@H]3C4=CC[C@H]([C@H](C)N(C)C)[C@@]4(C)CC[C@@H]32)C1=O [(E)-2-Methyl-but-2-enoic acid [(3S,8R,9S,10R,13R,17S)-17-((S)-1-dimethylamino-ethyl)-10,13-dimethyl-4-oxo-2,3,4,7,8,9,10,11,12,13,16,17-dodecahydro-1H-cyclopenta[a]phenanthren-3-yl]-amide]",Ki,[1],1.6 µM
same,IC50,[2],4.29 µM
"C/C=C(\C)C(=O)N[C@H]1CC[C@@]2(C)C(=CC[C@H]3[C@@H]4CC[C@H]([C@H](C)N(C)C)[C@@]4(C)CC[C@@H]32)C1=O [(E)-2-Methyl-but-2-enoic acid [(3S,8S,9S,10R,13S,14S,17S)-17-((S)-1-dimethylamino-ethyl)-10,13-dimethyl-4-oxo-2,3,4,7,8,9,10,11,12,13,14,15,16,17-tetradecahydro-1H-cyclopenta[a]phenanthren-3-yl]-amide]",Ki,[1],3.08 µM
same,IC50,[2],2.1 µM
"C/C(=C\C(=O)N(C)[C@H]1CC[C@@]2(C)[C@@H](CC[C@@H]3[C@@H]2CC[C@]2(C)[C@@H]([C@H](C)N(C)C)CC[C@@H]32)C1)C(C)C [(E)-3,4-Dimethyl-pent-2-enoic acid [(3S,5S,8R,9S,10S,13S,14S,17S)-17-((S)-1-dimethylamino-ethyl)-10,13-dimethyl-hexadecahydro-cyclopenta[a]phenanthren-3-yl]-methyl-amide]",Ki,[1],3.4 µM
same,IC50,[2],4.07 µM
"C[C@@H]([C@H]1CC[C@H]2[C@@H]3CC[C@H]4C[C@@H](N(C)C(=O)/C=C/c5ccccc5)CC[C@]4(C)[C@H]3CC[C@]12C)N(C)C [(E)-N-[(3S,5S,8R,9S,10S,13S,14S,17S)-17-((S)-1-Dimethylamino-ethyl)-10,13-dimethyl-hexadecahydro-cyclopenta[a]phenanthren-3-yl]-N-methyl-3-phenyl-acrylamide]",Ki,[1],6.6 µM
same,IC50,[2],4.84 µM
"C/C=C(\C)C(=O)N[C@@H]1[C@H](OC(C)=O)[C@@H]2CC[C@@H]3[C@H](CC[C@]4(C)[C@@H]([C@H](C)N(C)C)CC[C@@H]34)[C@@]2(C)C[C@@H]1O [Acetic acid (1S,4S,6R,7R,10R,11S,12S,15S,16S)-17-((S)-1-dimethylamino-ethyl)-2-(S)-hydroxy-10,13-dimethyl-3-((E)-2-methyl-but-2-enoylamino)-hexadecahydro-cyclopenta[a]phenanthren-4-yl ester]",IC50,[2],18.2 µM
"CC(=O)O[C@H]1[C@@H](NC(=O)C=C(C)C)CC[C@]2(C)[C@H]3CC[C@]4(C)[C@@H]([C@H](C)N(C)C)CC[C@H]4[C@@H]3CC[C@@H]12 [Acetic acid (1S,6R,7R,10R,11S,12S,15S,16S)-17-((S)-1-dimethylamino-ethyl)-10,13-dimethyl-3-(3-methyl-but-2-enoylamino)-hexadecahydro-cyclopenta[a]phenanthren-4-yl ester]",Ki,[1],2.58 µM
same,IC50,[2],2.3 µM
"C/C=C(\C)C(=O)N[C@@H]1[C@H](OC(C)=O)[C@@H]2CC[C@H]3C4=CC[C@H]([C@H](C)N(C)C)[C@@]4(C)CC[C@@H]3[C@@]2(C)C[C@@H]1O [Acetic acid (2S,3S,4R,5R,8R,9S,10R,13R,17S)-17-((S)-1-dimethylamino-ethyl)-2-hydroxy-10,13-dimethyl-3-((E)-2-methyl-but-2-enoylamino)-2,3,4,5,6,7,8,9,10,11,12,13,16,17-tetradecahydro-1H-cyclopenta[a]phenanthren-4-yl ester]",Ki,[1],26.3 µM
same,IC50,[2],38.4 µM
"CC(=O)O[C@H]1[C@@H](NC(=O)c2ccccc2)[C@@H](O)C[C@]2(C)[C@H]3CC[C@]4(C)[C@@H]([C@H](C)N(C)C)CC[C@H]4[C@@H]3CC[C@@H]12 [Acetic acid (2S,3S,4R,5R,8S,9S,10R,13S,14S,17S)-3-benzoylamino-17-(1-dimethylamino-ethyl)-2-hydroxy-10-methyl-13-(S)-methyl-hexadecahydro-cyclopenta[a]phenanthren-4-yl ester]",Ki,[1],20.3 µM
same,IC50,[2],18 µM
"CN[C@H]1CC[C@@]2(C)[C@@H](CC[C@@H]3[C@@H]2CC[C@]2(C)[C@@H]([C@H](C)N(C)C(C)=O)CC[C@@H]32)C1 [N-Methyl-N-[1-((3S,5S,8R,9S,10S,13S,14S,17S)-10-methyl-13-(S)-methyl-3-methylamino-hexadecahydro-cyclopenta[a]phenanthren-17-yl)-ethyl]-acetamide]",Ki,[1],8.6 µM
same,IC50,[2],16.5 µM
"C[C@@H]([C@H]1CC[C@H]2[C@@H]3CC[C@H]4C[C@@H](NC(=O)c5ccccc5)[C@@H](O)C[C@]4(C)[C@H]3CC[C@]12C)N(C)C [N-[(2S,3R,5S,8R,9S,10S,13S,14S,17S)-17-(1-Dimethylamino-ethyl)-2-hydroxy-10-methyl-13-(S)-methyl-hexadecahydro-cyclopenta[a]phenanthren-3-yl]-benzamide]",Ki,[1],16.2 µM
same,IC50,[2],28.9 µM
"CC(=O)N[C@H]1CC[C@@]2(C)[C@@H](CC[C@@H]3[C@@H]2CC[C@]2(C)[C@@H]([C@H](C)N(C)C)CC[C@@H]32)C1 [N-[(3S,5S,8R,9S,10S,13S,14S,17S)-17-((S)-1-Dimethylamino-ethyl)-10,13-dimethyl-hexadecahydro-cyclopenta[a]phenanthren-3-yl]-acetamide]",Ki,[1],7.5 µM
same,IC50,[2],10.3 µM
"C[C@@H]([C@H]1CC[C@H]2[C@@H]3CC[C@H]4C(=O)C(NC(=O)c5ccccc5)=CC[C@]4(C)[C@H]3CC[C@]12C)N(C)C [N-[(5R,8S,9S,10R,13S,14S,17S)-17-((S)-1-Dimethylamino-ethyl)-10,13-dimethyl-4-oxo-4,5,6,7,8,9,10,11,12,13,14,15,16,17-tetradecahydro-1H-cyclopenta[a]phenanthren-3-yl]-benzamide]",Ki,[1],2.15 µM
same,IC50,[2],2.49 µM
